Activity calls are given as the source filed them.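 The calls were made as follows: active = compounds giving half or more protection of infected cells from virus-caused growth loss, again on retest; inactive = the rest.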 Where a SMILES comes first, the peptide text is derived from it. [ ]: non-standard residue; d: D form. The star is where a group is joined. Arg(NO2) = N=C(NCCC[CH](N)C(=O)O)N[N+](=O)[O-]; Cbz = O=C(OCc1ccccc1)*
Test system: CEM cells HIV-1 protection, formazan growth assay
Assay: NCI AIDS Antiviral Assay
Settings: for IC50: measured here: growth of uninfected CEM cells
In short: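 Screen of anti-HIV-1 activity in human CEM cells using a formazan-based growth measurement at five drug concentrations. Hits with 50% or greater protection were repeated, and confirmation required reproducible complete protection.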

Compound | EC50 [µM] | IC50 [µM] | outcome
COc1cc2c(cc1OC)C(CC(=O)NN=C(C)C)NCC2 (centres undefined) | > 813 | > 813 | 
NC(=O)c1ncn(C/C=C/CO)c1N | > 200 | > 200 | 
CCOC(=O)c1cc2c(C(=O)c3ccc([N+](=O)[O-])cc3)c(C(C)=O)ccc2[nH]1 | > 200 | 174 | 
NS(=O)(=O)c1ccc(N=Nc2c(O)n(-c3ccccc3)n(-c3ccccc3)c2=O)cc1 | > 200 | 79.4 | 
CN1C(=O)CN=C(c2ccc[nH]2)c2cc(Cl)ccc21 (tested in a mixture with another compound) | 11.2 | 79.4 | 
CNC(=O)NC(CCCCNC(=O)OCc1ccccc1)C(=O)OCc1ccccc1 (centres undefined) | > 83.2 | 39.8 | 
CC(C)[C@@H]1ON1C(C)c1ccccc1 (some centres undefined) | > 200 | > 200 | 
COC(=O)C1=C(c2ccc(Cl)cc2)C(O)N=C(NN)N1 (centres undefined) | > 832 | > 832 | 
O=C1c2cccc3c([N+](=O)[O-])ccc(c23)C(=O)N1CC1CCCO1 (centres undefined) | > 2 | 0.195 | 
CC(=Nc1cccc(Cl)c1)c1ccncc1 |  |  | inactive
COC(=O)[C@@H]1C[C@@H](O)CN1C(=O)c1ccc([N+](=O)[O-])cc1[N+](=O)[O-] | > 200 | 129 | 
CC1(C)OC(=O)C(=Cc2cccc(Br)c2)C(=O)O1 | > 794 | 1.86 | 
CC(=O)Oc1ccc(-c2cc3ccccc3oc2=O)cc1 | > 200 | 28.2 | 
Oc1[nH]c(=S)[nH]c1/C=C1/C(c2ccccc2)=Nc2ccccc21 | > 200 | 9.33 | 
COc1ccc(N2C(=O)C(N3C(=O)C=CC3=O)C2C=O)cc1 (centres undefined) | > 166 | > 166 | 
COc1ccc(C(=O)C[P+](c2ccccc2)(c2ccccc2)c2ccccc2)cc1 | > 200 | 33.9 | 
CCOP(=O)(OCC)C(c1ccc(F)cc1)N(C(=O)NC(F)(F)F)c1ccc(OC)cc1 (centres undefined) | > 200 | > 200 | 
CC(=O)OC1CC2C(C)(C)C(=O)C=C[C@]2(C)C2CCC3(C)C(c4ccoc4)C(=O)[C@H]4O[C@]43[C@]12C (some centres undefined) | > 15.5 | 12 | 
CCOC(=O)c1cc(C(=O)OCC)c2ccccn2c1=O | > 100 | 43.7 | 
CCc1ccc(N=Cc2cc(OC)c(OC)c(OC)c2)cc1 | > 33.1 | > 33.1 | 
COc1cc2oc(=O)cc(C)c2cc1OC | > 200 | > 200 | 
CC1(C)C(=O)N(O)C(C)(C)N1N=O | > 200 | > 200 | 

Compound | EC50 [µM] | IC50 [µM] | outcome
NNc1nc(Nc2ccccc2)nc(Nc2ccccc2)n1 | > 200 | 38 | 
CCCCCCCCCCCCC1N=C(N)NC2(CCCO2)C1C(=O)OC (centres undefined) | > 200 | 5.75 | 
CCCCCCCCCC(=O)Oc1cccc2onc(C)c12 | > 24 | > 24 | 
CCCC(CCC)C(=O)[O-].CCCC(CCC)C(=O)[O-].CCCC(CCC)C(=O)[O-].CCCC(CCC)C(=O)[O-].[Cu+2].[Cu+2] | > 50.1 | 7.41 | 
CCSc1ccc(N=[N+]([O-])c2ccc(SCC)c(Cl)c2)cc1Cl | > 50.1 | > 50.1 | 
COC(=O)C(CCCN=C(N)N[N+](=O)[O-])NC(=O)C(Cc1ccccc1)NC(=O)C1CCCN1C(=O)OCc1ccccc1 (stereo not drawn) (Cbz-Pro-Phe-[Arg(NO2)]-OMe; configuration not given here) | > 112 | > 112 | 
O=C(CCCN1CCC2(CC1)CC(=O)N(N1CCCCCC1)C2=O)c1ccc(F)cc1 | > 200 | > 200 | 
COc1cc(O)c(C(C)=O)c(O)c1 | > 200 | 19.1 | 
CCOc1ccc(/C=C(\Cl)c2ccc(OC)c(OC)c2)cc1 | > 200 | 191 | 
CN1C(=O)C2CCC(=O)N2c2cccnc21 (centres undefined) | > 200 | > 200 | 
O=C1NC(=O)C2C1C1C=C3c4ccccc4N(c4ccccc4)C32[C@H]2C(=O)NC(=O)[C@@H]12 (some centres undefined) | > 316 | 112 | 
COC(=O)c1cc(C(CCl)c2cc(C(=O)OC)c(OC)c(Br)c2C)c(C)c(Br)c1OC | > 200 | 8.71 | 
CC(C)Oc1cc2c(c3oc(=O)c4c(c13)CCCC4)C(=O)[C@H](C)[C@@H](C)O2 | > 200 | 12.3 | 
COc1ccc2c(c1OC)Oc1c(OC)ccc3c1C(C2)NCC3 (centres undefined) | > 170 | > 100 | 
CC[C@H]1CC(=O)c2c(cc3c(c2O)C(=O)c2ccccc2C3=O)[C@@]1(C#N)C(=O)OC(C)(C)C |  |  | inactive
C/C(=N\N=C(\N)SB(F)F)c1ccc2ccccc2c1 | > 200 | 29.5 | 
O=S(=O)(O)c1cc2onnc2c2ccccc12 | > 1000 | 525 | 
CC(=O)N1C(NN(C)C)CCN1c1ccccc1 (centres undefined) | > 200 | 32.4 | 
C#CC(C)(C)Oc1ccc2c(=O)c(-c3ccc(OC)cc3)coc2c1 | > 200 | 20 | 
CC1=C(C#N)C2C(=C(C)N1)C(N)=Nc1ccccc12 (centres undefined) | > 200 | 13.5 | 
COc1ccc(C2Oc3ccc(O)cc3[C@@H]2C)cc1OC (some centres undefined) | > 174 | > 174 | 
O=C1OCC(Cc2ccc(O)c(O)c2)[C@H]1Cc1ccc(O)c(O)c1 (some centres undefined) | > 200 | 19.1 | 

Compound | EC50 [µM] | IC50 [µM] | outcome
COC(=O)c1cc(=O)nc(NN)s1 | > 50.1 | > 50.1 | 
COc1ccc(-c2c(C3=NCCCN3)nnn2-c2ccccc2)cc1 | > 759 | 282 | 
CC(=O)NC1NCCNC1=O (centres undefined) | > 200 | > 200 | 
COC1/C=C/OC2(C)Oc3c(C)c(O)c4c(O)c(cc(OCC(=O)N5CCC(O)(Cc6ccccc6)CC5)c4c3C2=O)NC(=O)/C(C)=C/C=CC(C)C(O)C(C)C(O)C(C)C(OC(C)=O)C1C (centres undefined) | > 112 | 30.9 | 
Nc1c(C(=O)O)[nH]c(=O)[nH]c1=S | > 200 | 95.5 | 
COC(=O)c1c(C)c2c(c(C)c1O)OC(=O)c1c(C)cc(O)c(C=O)c1O2 | 186 | > 200 | 
N#C/C(=C\c1ccccc1)c1nc(-c2cc3ccccc3oc2=O)cs1 | > 151 | > 151 | 
CN(c1ccccc1)c1nc(=[N+]2CCCC2)ss1 |  |  | inactive
CCOC(=O)/C(=C/c1cn(C(C)=O)c2ccccc12)P(C)(=O)OCC (centres undefined) | > 200 | 37.2 | 
Cc1cc(Cl)ccc1NC(=O)/C(CC(=O)CC(c1ccccc1)c1c(O)c2ccccc2oc1=O)=N\O (centres undefined) | > 132 | 95.5 | 
C=CC12CCCCC1CC(C(=O)OC)=C(O)C2 (centres undefined) |  |  | inactive
Cc1ccc(S(=O)(=O)N2CCN(C=S)CC2)cc1 | > 91.2 | > 91.2 | 
COc1cc(OC)c(CSCC(NC(=O)OCC2c3ccccc3-c3ccccc32)C(=O)O)c(OC)c1 (centres undefined) | > 200 | 105 | 
COc1cc(-c2cc(=O)c3cc4c(=O)cc(-c5cc(OC)c(OC)c(OC)c5)oc4cc3o2)cc(OC)c1OC | > 100 | > 100 | 
CC(=O)/C(C)=C(/C)[O-].CC(=O)/C(C)=C(/C)[O-].NCCNCCCNC(=O)c1cccc2cc3ccccc3nc12.[Co+3].[O-][Cl+3]([O-])([O-])[O-] | > 100 | 3.47 | 
NCC(NC(=O)OCc1ccccc1)C(=O)O (centres undefined) | > 105 | > 105 | 
O=C(Nc1ccccc1S)c1ccccc1 | 6.76 | 10.5 | 
CC(=O)Nc1ccc(S(=O)(=O)c2ccc(NC(=O)c3ccccc3SC(=O)CCCC[n+]3ccccc3)cc2)cc1 | 13.5 | > 200 | 
COc1ccc(NCC(=O)Nn2c(C)nc3ccc(S(=O)(=O)Nc4ccc(OC)cc4)cc3c2=O)cc1 | > 100 | > 100 | 
O=C(/C=C/c1ccccc1F)c1ccccc1 | > 22.9 | > 22.9 | 
COc1c(O)cc2oc(-c3ccc(O)c(O)c3)cc(=O)c2c1O | > 38 | 22.9 | 
COc1ccc(C(=O)/C=C/c2ccc(OCCCOc3ccc(/C=C/C(=O)c4ccc(OC)c(OC)c4)cc3)cc2)cc1OC | > 200 | > 200 | 

Compound | EC50 [µM] | IC50 [µM] | outcome
CC12C(=O)CC(CC1=O)C2(C)C | > 200 | > 200 | 
COC=C(c1cc(Br)c(OC)c(C(=O)OC)c1)c1cc(Br)c(OC)c(C(=O)OC)c1 | > 200 | 13.5 | 
CC(=O)OCC1OC(n2c3c(cc(C#N)c2=S)CCCCCC3)C(OC(C)=O)C(OC(C)=O)C1OC(C)=O (centres undefined) | > 200 | 52.5 | 
O=P1(c2ccccc2)C=C(c2ccccc2)NC(c2ccccc2)=C1 |  |  | inactive
C=CCC1(c2ccccc2)Oc2ccccc2-n2cccc2C1=O (centres undefined) | 7.08 | 10.5 | 
CC(=O)NNC(=S)N/C=C(\C#N)c1nc2ccccc2s1 | > 200 | > 200 | 
CSC(=S)CC(O)[C@@H]1CC2c3ccccc3C1c1ccccc12 (some centres undefined) | > 200 | 3.47 | 
O=C(O)c1c(O)ccc(O)c1C(=O)Nc1ccc(/C=C/c2ccc(NC(=O)c3c(O)ccc(O)c3C(=O)O)cc2S(=O)(=O)O)c(S(=O)(=O)O)c1 | 17.8 | > 200 | 
Cc1cc(O)c(/C=N/c2nc(-c3cccc([N+](=O)[O-])c3)cs2)c(=O)o1 | > 200 | 35.5 | 
Cn1c2c(c3ccccc31)CCN1C(=O)CN(C(=O)C3CCCCC3)CC21 (centres undefined) | > 200 | 66.1 | 
COc1ccc(C(c2ccc3cccnc3c2O)c2oc(CO)cc(=O)c2O)cc1 (centres undefined) |  |  | inactive
O=P(O)(O)OC1C(OP(=O)(O)O)C(OP(=O)(O)O)C(OP(=O)(O)O)C(OP(=O)(O)O)C1OP(=O)(O)O (centres undefined) | > 200 | > 200 | 
Nc1[nH]c(=S)[nH]c(=O)c1N=O | > 200 | > 200 | 
COc1ccc2c(=O)c(-c3ccc4c(c3)OCO4)c(C)oc2c1 | > 200 | 42.7 | 
CC(=O)On1c(-c2ccccc2)nc2ccccc2c1=S | > 200 | 1.35 | 
CC(C)(C)c1cc2c(O)c(c1)Cc1cc(C(C)(C)C)cc(c1O)Cc1cc(C(C)(C)C)cc(c1O)Cc1cc(C(C)(C)C)cc(c1O)C2 | > 77.6 | > 77.6 | 
Cn1nc(N)nc1N=S(C)(C)=N | > 1320 | > 1320 | 
O=S(Cc1ccccc1)c1nc2ccccc2nc1-c1cccs1 (centres undefined) | > 74.1 | 13.5 | 
O=C(O)C1OC(n2cc([N+](=O)[O-])c(=O)[nH]c2=O)C(O)C1O (centres undefined) | > 200 | > 200 | 

— PubChem BioAssay AID179 (DTP/NCI, 2004)
